The values below come from patent publication US8148388B2, “2,4 (4,6) pyrimidine derivatives” (Janssen Pharmaceutica, N.V., priority 2004, dated 2012).

Common to all, as to type: biochemical
For one assay, the target named is Lyn (h) (Homo sapiens, UniProt P07948). The assay is described as follows: Lyn human kinase assay (glass-fiber filter). As to conditions: test concentration of 10^−6M; for inhibition at 1 µM: read-out: C10 score (inhibition of Lyn human). Here is the method:
(§1) In the glass-fiber filter technology the activity of the kinase of interest is measured using an appropriate substrate that is incubated with the aforementioned kinase protein in the presence of (^33P) radiolabeled ATP. (^33P) Phosphorylation of the substrate is subsequently measured as radioactivity bound on a glass fiber-filter.
(§2) All kinases are pre-diluted to a 10× working concentration prior to addition into the assay. The composition of the dilution buffer for each kinase is detailed below.
In a final reaction volume of […] (h) (5-10 mU) is incubated with 50 mM Tris pH 7.5, 0.1 mM EGTA, 0.1 mM Na3VO4, 0.1% O-mercaptoethanol, 0.1 mg/ml poly(Glu, Tyr) 4:1, 10 mM MgAcetate and [γ-^33P-ATP] (specific activity approx. 500 cpm/pmol, concentration as required). The reaction is initiated by the addition of the MgATP mix. After incubation for 40 minutes at room temperature, the reaction is stopped by the addition of 5 μl of a 3% phosphoric acid solution. 10 μl of the reaction is then spotted onto a Filtennat A and washed three times for 5 minutes in 75 mM phosphoric acid and once in methanol prior to drying and scintillation counting.

The next assay deals with Yes (h) (Homo sapiens, UniProt P07947). The assay is described as follows: Yes human kinase assay (glass-fiber filter). As to conditions: test concentration of 10^−6M; for inhibition at 1 µM: read-out: C11 score (inhibition of Yes human). Here is the method: as §1, §2
(§3) In a final reaction volume of 25 μl, Yes (h) (5-10 mU) is incubated with 8 mM MOPS pH 7.0, 0.2 mM EDTA, 0.1 mg/ml poly(Glu, Tyr) 4:1, 10 mM MgAcetate and [γ-^33P-ATP] (specific activity approx. 500 cpm/μmol, concentration as required). The reaction is initiated by the addition of the MgATP mix. After incubation for 40 minutes at room temperature, the reaction is stopped by the addition of 5 μl of a 3% phosphoric acid solution. 10 μl of the reaction is then spotted onto a Filtermat A and washed three times for 5 minutes in 75 mM phosphoric acid and once in methanol prior to drying and scintillation counting.

For the next assay, the target named is EGFR (h) (Homo sapiens, UniProt P00533). Nature of the assay: EGFR human kinase assay (glass-fiber filter). To be noted: test concentration of 10^−6M; for inhibition at 1 µM: read-out: C4 score (inhibition of EGFR human). The method, then: as §1, §2
as §3, with “EGFR” for “Yes”, “EDTA, 10 mM MnCl2,” for “EDTA,”, “cpm/pmol,” for “cpm/μmol,”

For a further assay, the target named is Flt3 (h) (Homo sapiens, UniProt P36888). Nature of the assay: Flt3 human kinase assay (glass-fiber filter). As to conditions: test concentration of 10^−6M; read-out: C6 score (inhibition of Flt3 human). Here is the method:
(§4) The in vitro inhibition of a panel of kinases was assessed using either the glass-fiber filter technology as described by Davies, S. P. et al., Biochem J. (2000), 351; p. 95-105.
as §1, §2
In a final reaction volume of 25 μl, Flt3 (h) (5-10 mU) is incubated with 8 mM MOPS pH 7.0, 0.2 mM EDTA, 50 μM […], 10 mM MgAcetate and [γ-^33P-ATP] (specific activity approx. 500 cpm/pmol, concentration as required). The reaction is initiated by the addition of the MgATP mix. After incubation for 40 minutes at room temperature, the reaction is stopped by the addition of 5 μl of a 3% phosphoric acid solution. 10 μl of the reaction is then spotted onto a P30 filtermat and washed three times for 5 minutes in 75 mM phosphoric acid and once in methanol prior to drying and scintillation counting.

The target of a further assay is Lck (h) (Homo sapiens, UniProt P06239). Nature of the assay: Lck human kinase assay (glass-fiber filter). As to conditions: test concentration of 10^−6M; for inhibition at 1 µM: read-out: C9 score (inhibition of Lck human). The method, then:
(§5) The in vitro inhibition of a panel of kinases was assessed using either the glass-fiber filter technology as described by Davies, S. P. et al., Biochem J. […] In the glass-fiber filter technology the activity of the kinase of interest is measured using an appropriate substrate that is incubated with the aforementioned kinase protein in the presence of (^33P) radiolabeled ATP. (^33P) Phosphorylation of the substrate is subsequently measured as radioactivity bound on a glass fiber-filter. All kinases are pre-diluted to a 10× working concentration prior to addition into the assay. The composition of the dilution buffer for each kinase is detailed below. [table] […] The reaction is initiated by the addition of the MgATP mix. […] 10 μl of the reaction is then spotted onto a P30 filtermat and washed three times for 5 minutes in 75 mM phosphoric acid and once in methanol prior to drying and scintillation counting.

For the next assay, the target named is Fms (h) (Homo sapiens, UniProt P07333). Nature of the assay: Fms human kinase assay (glass-fiber filter). As to conditions: test concentration of 10^−6M; read-out: C7 score (inhibition of Fms human). The method, then: as §4, §1, §2
In a final reaction volume of 25 μl, Fms (h) (5-10 mU) is incubated with 8 mM MOPS pH 7.0, 0.2 mM EDTA, 250 μM […], 10 mM MgAcetate and [γ-^33P-ATP] (specific activity approx. 500 cpm/pmol, concentration as required). The reaction is initiated by the addition of the MgATP mix. After incubation for 40 minutes at room temperature, the reaction is stopped by the addition of 5 μl of a 3% phosphoric acid solution. 10 μl of the reaction is then spotted onto a P30 filtermat and washed three times for 5 minutes in 75 mM phosphoric acid and once in methanol prior to drying and scintillation counting.

A further assay addresses Abl (h) (Homo sapiens, UniProt P00519). Nature of the assay: Abl human kinase assay (glass-fiber filter). As to conditions: test concentration of 10^−6M; for inhibition at 1 µM: read-out: C1 score (inhibition of Abl human). Here is the method: as §1, §2
(specific activity approx. 500 cpm/pmol, concentration as required). The reaction is initiated by the addition of the MgATP mix. After incubation for 40 minutes at room temperature, the reaction is stopped by the addition of 5 μl of a 3% phosphoric acid solution. 10 μl of the reaction is then spotted onto a P30 filtermat and washed three times for 5 minutes in 75 mM phosphoric acid and once in methanol prior to drying and scintillation counting.

For the next assay, the target named is Fes (h) (Homo sapiens, UniProt P07332). The assay is described as follows: Fes human kinase assay (glass-fiber filter). To be noted: test concentration of 10^−6M; for inhibition at 1 µM: read-out: C4 score (inhibition of Fes human). The method, then: as §1, §2
as §3, with “Fes” for “Yes”, “cpm/pmol,” for “cpm/μmol,”

The target in another assay is cSRC (h) (Homo sapiens, UniProt P12931). The assay is described as follows: cSRC human kinase assay (glass-fiber filter). To be noted: test concentration of 10^−6M; for inhibition at 1 µM: read-out: C3 score (inhibition of cSRC human). The method, then:
as §5, with “below.” for “below. [table]”

The target of another assay is GSK3B (h) (Homo sapiens, UniProt P49841). The assay is described as follows: GSK3β human kinase assay (glass-fiber filter). As to conditions: test concentration of 10^−6M; read-out: C8 score (inhibition of GSK3β human). Here is the method: as §4, §1, §2
In a final reaction volume of 25 μl, GSK3B (h) (5-10 mU) is incubated with 8 mM MOPS pH 7.0, 0.2 mM EDTA, 20 μM […](p)EDEEE (phospho GS2 peptide), 10 mM MgAcetate and [γ-^33P-ATP] (specific activity approx. 500 cpm/pmol, concentration as required). The reaction is initiated by the addition of the MgATP mix. After incubation for 40 minutes at room temperature, the reaction is stopped by the addition of 5 μl of a 3% phosphoric acid solution. 10 μl of the reaction is then spotted onto a P30 filtermat and washed three times for 5 minutes in 50 mM phosphoric acid and once in methanol prior to drying and scintillation counting.

Sequence of Fms (h) (P07333 20-972): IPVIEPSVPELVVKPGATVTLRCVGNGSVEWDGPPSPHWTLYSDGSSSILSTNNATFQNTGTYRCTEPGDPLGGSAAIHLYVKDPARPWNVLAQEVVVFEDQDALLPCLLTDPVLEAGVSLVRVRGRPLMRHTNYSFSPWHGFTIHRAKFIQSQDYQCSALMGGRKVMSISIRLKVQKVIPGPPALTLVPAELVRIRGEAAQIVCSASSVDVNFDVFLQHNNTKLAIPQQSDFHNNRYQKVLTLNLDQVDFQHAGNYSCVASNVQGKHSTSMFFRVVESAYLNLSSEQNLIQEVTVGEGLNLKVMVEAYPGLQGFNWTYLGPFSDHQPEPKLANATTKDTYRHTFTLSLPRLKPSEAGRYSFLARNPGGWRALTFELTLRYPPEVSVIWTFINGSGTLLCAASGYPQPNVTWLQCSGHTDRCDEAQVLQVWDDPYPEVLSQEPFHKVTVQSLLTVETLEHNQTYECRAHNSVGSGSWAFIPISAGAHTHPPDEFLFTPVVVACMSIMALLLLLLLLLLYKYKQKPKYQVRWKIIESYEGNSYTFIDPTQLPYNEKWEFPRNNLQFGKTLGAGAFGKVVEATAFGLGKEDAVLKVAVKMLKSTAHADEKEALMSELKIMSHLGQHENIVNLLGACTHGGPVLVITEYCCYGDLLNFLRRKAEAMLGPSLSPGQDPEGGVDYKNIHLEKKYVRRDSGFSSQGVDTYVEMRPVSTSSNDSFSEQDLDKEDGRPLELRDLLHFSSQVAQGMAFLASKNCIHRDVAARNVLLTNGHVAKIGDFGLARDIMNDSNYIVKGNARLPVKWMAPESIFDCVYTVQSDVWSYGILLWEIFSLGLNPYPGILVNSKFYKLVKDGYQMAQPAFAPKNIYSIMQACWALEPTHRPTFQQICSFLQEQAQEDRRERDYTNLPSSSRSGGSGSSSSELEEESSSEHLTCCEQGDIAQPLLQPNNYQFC
Sequence of Lck (h) (P06239 whole entry): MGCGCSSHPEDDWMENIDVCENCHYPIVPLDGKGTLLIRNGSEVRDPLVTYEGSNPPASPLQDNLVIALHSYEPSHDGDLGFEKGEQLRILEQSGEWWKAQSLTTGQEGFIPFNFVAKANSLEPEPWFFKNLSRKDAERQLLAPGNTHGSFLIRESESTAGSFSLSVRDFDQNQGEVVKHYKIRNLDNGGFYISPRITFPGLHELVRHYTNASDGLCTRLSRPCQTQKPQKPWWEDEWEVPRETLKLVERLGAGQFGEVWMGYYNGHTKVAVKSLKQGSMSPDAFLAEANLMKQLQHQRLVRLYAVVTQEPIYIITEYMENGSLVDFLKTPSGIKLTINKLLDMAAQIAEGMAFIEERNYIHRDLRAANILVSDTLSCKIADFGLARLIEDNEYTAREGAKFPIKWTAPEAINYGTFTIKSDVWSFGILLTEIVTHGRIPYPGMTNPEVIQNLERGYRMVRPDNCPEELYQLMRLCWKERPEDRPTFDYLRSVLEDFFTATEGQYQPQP
Sequence of EGFR (h) (P00533 25-1210): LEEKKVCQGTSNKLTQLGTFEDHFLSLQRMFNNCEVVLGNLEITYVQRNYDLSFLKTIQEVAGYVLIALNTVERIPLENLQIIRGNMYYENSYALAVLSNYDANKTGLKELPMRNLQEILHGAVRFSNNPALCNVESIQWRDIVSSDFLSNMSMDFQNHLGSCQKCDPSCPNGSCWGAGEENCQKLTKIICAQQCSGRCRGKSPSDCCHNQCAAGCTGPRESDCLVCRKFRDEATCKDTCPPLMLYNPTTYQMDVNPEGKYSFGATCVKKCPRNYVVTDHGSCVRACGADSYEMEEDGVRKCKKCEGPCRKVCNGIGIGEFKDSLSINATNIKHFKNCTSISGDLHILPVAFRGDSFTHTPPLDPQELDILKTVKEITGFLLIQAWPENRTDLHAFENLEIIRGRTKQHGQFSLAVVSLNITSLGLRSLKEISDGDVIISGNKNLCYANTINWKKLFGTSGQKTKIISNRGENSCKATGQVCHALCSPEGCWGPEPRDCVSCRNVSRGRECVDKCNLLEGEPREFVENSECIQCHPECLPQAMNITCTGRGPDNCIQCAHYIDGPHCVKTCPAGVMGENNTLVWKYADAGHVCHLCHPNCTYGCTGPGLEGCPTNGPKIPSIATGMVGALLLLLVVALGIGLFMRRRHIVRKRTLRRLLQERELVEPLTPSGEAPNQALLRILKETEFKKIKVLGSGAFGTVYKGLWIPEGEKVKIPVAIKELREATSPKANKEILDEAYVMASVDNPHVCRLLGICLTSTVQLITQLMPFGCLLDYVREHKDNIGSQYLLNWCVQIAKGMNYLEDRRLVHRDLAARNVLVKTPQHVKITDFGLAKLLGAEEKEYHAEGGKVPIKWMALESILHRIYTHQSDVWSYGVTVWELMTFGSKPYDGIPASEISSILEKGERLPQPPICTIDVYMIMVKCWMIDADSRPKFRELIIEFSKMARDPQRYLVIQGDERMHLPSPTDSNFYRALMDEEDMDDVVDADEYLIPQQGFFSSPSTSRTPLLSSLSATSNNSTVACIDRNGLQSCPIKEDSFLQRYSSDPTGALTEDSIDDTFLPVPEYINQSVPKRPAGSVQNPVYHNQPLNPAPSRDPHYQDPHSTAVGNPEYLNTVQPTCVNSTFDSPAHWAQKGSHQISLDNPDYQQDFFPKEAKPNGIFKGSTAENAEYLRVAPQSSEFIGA
Sequence of Flt3 (h) (P36888 27-993): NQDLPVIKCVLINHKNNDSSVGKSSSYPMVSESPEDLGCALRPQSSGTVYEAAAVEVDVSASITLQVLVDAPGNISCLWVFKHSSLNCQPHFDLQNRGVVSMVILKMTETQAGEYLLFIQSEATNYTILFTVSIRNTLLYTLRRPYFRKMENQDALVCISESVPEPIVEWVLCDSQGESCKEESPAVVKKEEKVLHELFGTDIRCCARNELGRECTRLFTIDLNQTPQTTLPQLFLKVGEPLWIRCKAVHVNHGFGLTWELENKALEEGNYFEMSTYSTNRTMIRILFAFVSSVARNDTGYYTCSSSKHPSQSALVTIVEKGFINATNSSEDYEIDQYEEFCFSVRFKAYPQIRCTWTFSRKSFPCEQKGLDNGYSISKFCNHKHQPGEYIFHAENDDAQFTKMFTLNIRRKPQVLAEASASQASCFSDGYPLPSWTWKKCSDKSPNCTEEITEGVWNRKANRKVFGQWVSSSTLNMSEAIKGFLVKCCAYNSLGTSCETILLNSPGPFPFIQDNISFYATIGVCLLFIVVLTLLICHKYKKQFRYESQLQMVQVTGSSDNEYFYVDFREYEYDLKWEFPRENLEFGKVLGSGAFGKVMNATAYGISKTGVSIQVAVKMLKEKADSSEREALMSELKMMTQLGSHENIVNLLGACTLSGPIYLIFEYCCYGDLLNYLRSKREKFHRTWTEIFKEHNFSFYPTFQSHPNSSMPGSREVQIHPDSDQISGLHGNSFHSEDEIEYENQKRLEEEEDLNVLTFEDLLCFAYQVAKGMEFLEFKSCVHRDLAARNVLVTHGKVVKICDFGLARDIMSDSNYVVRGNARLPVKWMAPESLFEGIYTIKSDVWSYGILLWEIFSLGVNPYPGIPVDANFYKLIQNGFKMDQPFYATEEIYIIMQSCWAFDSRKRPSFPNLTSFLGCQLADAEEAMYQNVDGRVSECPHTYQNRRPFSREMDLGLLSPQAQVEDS
Sequence of Yes (h) (P07947 whole entry): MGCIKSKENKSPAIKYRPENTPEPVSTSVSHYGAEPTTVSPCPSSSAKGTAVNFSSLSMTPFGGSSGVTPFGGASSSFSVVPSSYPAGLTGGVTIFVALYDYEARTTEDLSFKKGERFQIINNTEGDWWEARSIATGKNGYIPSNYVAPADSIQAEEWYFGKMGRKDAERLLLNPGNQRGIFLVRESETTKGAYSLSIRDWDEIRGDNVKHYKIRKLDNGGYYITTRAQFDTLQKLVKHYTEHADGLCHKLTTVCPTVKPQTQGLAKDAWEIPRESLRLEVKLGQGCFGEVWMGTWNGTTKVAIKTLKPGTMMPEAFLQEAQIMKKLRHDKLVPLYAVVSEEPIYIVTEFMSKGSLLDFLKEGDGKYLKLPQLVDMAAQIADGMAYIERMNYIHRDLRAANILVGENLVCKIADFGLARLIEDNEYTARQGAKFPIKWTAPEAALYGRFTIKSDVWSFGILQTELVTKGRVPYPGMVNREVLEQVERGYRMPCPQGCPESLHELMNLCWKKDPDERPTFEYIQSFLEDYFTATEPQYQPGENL
Sequence of Fes (h) (P07332 whole entry): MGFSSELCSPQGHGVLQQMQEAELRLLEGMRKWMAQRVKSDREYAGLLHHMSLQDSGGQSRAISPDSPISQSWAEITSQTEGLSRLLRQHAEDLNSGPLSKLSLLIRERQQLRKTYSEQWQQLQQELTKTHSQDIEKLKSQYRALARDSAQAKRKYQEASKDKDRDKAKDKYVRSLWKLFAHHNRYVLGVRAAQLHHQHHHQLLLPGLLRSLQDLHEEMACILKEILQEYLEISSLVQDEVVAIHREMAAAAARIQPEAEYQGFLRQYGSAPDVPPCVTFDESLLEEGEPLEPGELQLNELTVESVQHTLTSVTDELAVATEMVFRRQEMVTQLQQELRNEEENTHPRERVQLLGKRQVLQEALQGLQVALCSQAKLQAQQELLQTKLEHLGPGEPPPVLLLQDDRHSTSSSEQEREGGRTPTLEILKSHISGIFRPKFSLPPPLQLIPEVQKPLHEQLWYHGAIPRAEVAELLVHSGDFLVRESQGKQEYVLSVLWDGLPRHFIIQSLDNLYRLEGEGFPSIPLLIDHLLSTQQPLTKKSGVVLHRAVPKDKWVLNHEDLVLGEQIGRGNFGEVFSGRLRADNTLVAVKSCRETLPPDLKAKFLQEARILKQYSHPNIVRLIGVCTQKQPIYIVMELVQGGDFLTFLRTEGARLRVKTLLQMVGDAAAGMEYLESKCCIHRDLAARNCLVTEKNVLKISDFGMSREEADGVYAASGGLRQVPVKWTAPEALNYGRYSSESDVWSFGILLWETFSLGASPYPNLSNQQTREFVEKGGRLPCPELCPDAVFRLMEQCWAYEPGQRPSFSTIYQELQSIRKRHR

The inhibition is the relative decrease from the control value, in per cent. Take `O=C1CCc2cccc(c2)Nc2cc(ncn2)Nc2cccc(c2)CN2CCN1CC2` [Compound 43, 1,8,10,12,14,23-hexaazapentacyclo[21.2.2.1~3,7~.1~9,13~.1~15,19~]triaconta-3,5,7(30),9,11,13(29),15,17,19(28)-nonaen-22-one]: the inhibition at 1 µM was 30 to 60% on Lyn (h); 10 to 30% on Yes (h); 30 to 60% on EGFR (h); 30 to 60% on Flt3 (h); 10 to 30% on Lck (h); 30 to 60% at Fms (h).

With `N#Cc1cnc2nc1Nc1cccc(c1)C(=O)NCCCCCOc1cccc(c1)N2` [Compound 18, 21-oxa-2,4,8,15,28-pentaazatetracyclo[20.3.1.1~3,7~.1~9,13~]octacosa-1(26),3,5,7(28),9,11,13(27),22,24-nonaene-6-carbonitrile, 14-oxo-], the inhibition at 1 µM at Abl (h) lay in the range of 10 to 30%; on Lyn (h), 30 to 60%; on Yes (h), 10 to 30%; at EGFR (h), 10 to 30%; at Flt3 (h), 30 to 60%; on Lck (h) it was 10 to 30%. Further, the figures for the inhibition at 1 µM at Fes (h) and on Fms (h) were 10 to 30% and 30 to 60%, respectively.

With `O=C1COc2cccc(c2)Nc2nccc(n2)Nc2cccc(c2)CN1` [Compound 23, 18-oxa-2,4,8,15,25-pentaazatetracyclo[17.3.1.1~3,7~.1~9,13~]pentacosa-1(23),3,5,7(25),9,11,13(24),19,21-nonaen-16-one], the inhibition at 1 µM on Abl (h) was 10 to 30%; on Flt3 (h), 30 to 60%; on Fes (h) it was 10 to 30%.

On to `COc1ccc2cc1OCCCNC(=O)[C@H](CC(C)C)NC(=O)Cc1ccc(Cl)cc1Nc1cc(ncn1)N2` [Compound 12, 6, 2:12,8-dimetheno-7H-13,1,3,5,7,17,20-benzoxahexaazacyclotetracosine-18,21-dione, 25-chloro-1,14,15,16,17,19,20,22-octahydro-11-methoxy-19-(2-methylpropyl)-, (19S)-], for which the “C1 score (inhibition of Abl human)” value at Abl (h) is 2 (Score 2=30-60% inhibition). In addition, the “C10 score (inhibition of Lyn human)” value on Lyn (h) is recorded as 4 (Score 4=>80% inhibition). Also, the “C11 score (inhibition of Yes human)” value on Yes (h) was 4 (Score 4=>80% inhibition). Further, the “C4 score (inhibition of EGFR human)” value at EGFR (h) was 4 (Score 4=>80% inhibition). Besides, the “C9 score (inhibition of Lck human)” value on Lck (h) was 4 (Score 4=>80% inhibition). Besides, the “C4 score (inhibition of Fes human)” value at Fes (h) is 2 (Score 2=30-60% inhibition). For the same compound, the “C3 score (inhibition of cSRC human)” value at cSRC (h) was 4 (Score 4=>80% inhibition).

As to `O=C1NCCCCCCOc2cccc(c2)Nc2ccnc(n2)Nc2cccc1c2` [Compound 21, 14-oxa-2,4,8,21,29-pentaazatetracyclo[21.3.1.1~3,7~.1~9,13~]nonacosa-1(27),3,5,7(29),9,11,13(28),23,25-nonaen-22-one], the inhibition at 1 µM on Abl (h) lay in the range of 10 to 30%; on Lyn (h) it was 10 to 30%; on Yes (h), 10 to 30%; on GSK3B (h), 10 to 30%; at Flt3 (h), 60 to 80%; on Lck (h) it was 30 to 60%. For the same compound, the inhibition at 1 µM at Fms (h) was in the range of 30 to 60%; at cSRC (h), 10 to 30%.

With `O=C1NCc2cccc(c2)Nc2ccnc(n2)Nc2cccc1c2` [Compound 24, 2,4,8,15,23-pentaazatetracyclo[15.3.1.1~3,7~.1~9,13~]tricosa-1(21),3,5,7(23),9,11,13(22),17,19-nonaen-16-one], the inhibition at 1 µM on Abl (h) lay within 30 to 60%; at Lyn (h) it was 10 to 30%; on Yes (h), 10 to 30%; on Flt3 (h), 60 to 80%; at Lck (h) it was 30 to 60%; at Fms (h), 10 to 30%. In addition, the inhibition at 1 µM at cSRC (h) fell in the range of 10 to 30%.
